Molecules are shown by their SMILES. Where two headings read alike, the source gives them in different places.

In data set [1] the test system is human pancreatic cancer BxPC-3. Description: BxPC-3 tumor-bearing nude mouse model. Type of data set: in vivo, nude mice.
The conditions of data set [2]: background; cited from earlier work.
Another data set has as its system UM-UC-3 cells. Kind of data set: CCK-8 anti-proliferative assay, UM-UC-3. The following applies: Homo sapiens, UMUC3, co-incubated 48 h, read-out: Anti-proliferative activity (IC50 ± standard deviation) UM-UC-3. Format: cell-based, human. Summed up: (§1)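 Cells seeded at 5,000/well, grown at 37° C, 5% CO2 to 70% confluence, then treated in triplicate with 1-30 μM compound (nine concentrations) for designated times.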
In general terms: Tetrazolium dyes change colour on reduction, which living cells bring about.

In another data set the test system is PANC-1 cells. Description: CCK-8 anti-proliferative assay, PANC-1. The following applies: for IC50: Homo sapiens, PANC-1, co-incubated 48 h, read-out: Anti-proliferative activity (IC50 ± standard deviation) PANC-1. Type of data set: cell-based, human. Summed up: (§2)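 Human tumour cells were seeded at 5,000 per well and grown to 70% confluence. They were then treated in triplicate with compound at 1–30 μM (final) for the designated time. Viability was read by CCK-8 absorbance at 450 nm after 1–4 h, and IC50 was derived from % inhibition versus control.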

The next data set deals with Hep G2 cells. Kind of data set: CCK-8 anti-proliferative assay, Hep G2. Type of data set: cell-based, human. The following applies: for IC50: Homo sapiens, HepG2. Summed up:
as §2

In a further data set the test system is MCF-7 cells. Kind of data set: CCK-8 anti-proliferative assay, MCF-7. Type of data set: cell-based, human. The following applies: Homo sapiens, MCF7, co-incubated 48 h, read-out: Anti-proliferative activity (IC50 ± standard deviation) MCF-7. An outline of the steps: as §1
The next data set has as its system BxPC-3 cells. Description: CCK-8 anti-proliferative assay, BxPC-3. Type of data set: cell-based, human. The following applies: for IC50: Homo sapiens, BXPC-3, co-incubated 48 h, read-out: Anti-proliferative activity (IC50 ± standard deviation) BxPC-3. An outline of the steps: as §2
The subject of another data set is 5637 cells. Kind of data set: CCK-8 anti-proliferative assay, 5637. Format: cell-based, human. The following applies: Homo sapiens, co-incubated 48 h, read-out: Anti-proliferative activity (IC50 ± standard deviation) 5637. An outline of the steps:
as §1

The test system of another data set is SK-OV-3 cells. Description: CCK-8 anti-proliferative assay, SK-OV-3. Format: cell-based, human. The following applies: Homo sapiens, SK-OV-3, co-incubated 48 h, read-out: Anti-proliferative activity (IC50 ± standard deviation) SK-OV-3. An outline of the steps: as §1
For the next data set, the system named is J82 cells. Kind of data set: CCK-8 anti-proliferative assay, J82. Type of data set: cell-based, human. The following applies: Homo sapiens, J82, co-incubated 48 h, read-out: Anti-proliferative activity (IC50 ± standard deviation) J82. Summed up: as §1
In a further data set the test system is HeLa cells. Kind of data set: CCK-8 anti-proliferative assay, HeLa. Format: cell-based, human. The following applies: Homo sapiens, HeLa, co-incubated 48 h, read-out: Anti-proliferative activity (IC50 ± standard deviation) HeLa. Summed up:
as §1

The subject of data set [3] is immortalized ureteral epithelial cells (SV-HUC-1). Description: CCK-8 anti-proliferative assay, normal cells SV-HUC-1. The following applies: Homo sapiens, SV-HUC1, normal cells, co-incubated 48 h, read-out: Anti-proliferative activity (IC50 ± standard deviation) SV-HUC-1. Type of data set: cell-based, human. Summed up:
as §1

The test system of the next data set is T24 cells. Kind of data set: CCK-8 anti-proliferative assay, T24. Type of data set: cell-based, human. The following applies: Homo sapiens, T-24, co-incubated 48 h, read-out: Anti-proliferative activity (IC50 ± standard deviation) T24. Summed up:
as §2

The subject of another data set is 143B cells. Kind of data set: CCK-8 anti-proliferative assay, 143B. Format: cell-based, human. The following applies: Homo sapiens, 143B, co-incubated 48 h, read-out: Anti-proliferative activity (IC50 ± standard deviation) 143B. An outline of the steps:
as §2

The next data set deals with MG-63 cells. Description: CCK-8 anti-proliferative assay, MG-63. The following applies: Homo sapiens, MG-63, co-incubated 48 h, read-out: Anti-proliferative activity (IC50 ± standard deviation) MG-63. Format: cell-based, human. An outline of the steps: as §2
A further data set deals with A549 cells. Kind of data set: CCK-8 anti-proliferative assay, A549. Format: cell-based, human. The following applies: Homo sapiens, A549, co-incubated 48 h, read-out: Anti-proliferative activity (IC50 ± standard deviation) A549. An outline of the steps:
as §1

For data set [4], the system named is embryonic lung fibroblasts (WI-38). Description: CCK-8 anti-proliferative assay, normal cells WI-38. Format: cell-based, human. The following applies: Homo sapiens, read-out: Anti-proliferative activity (IC50 ± standard deviation) WI-38. Summed up:
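Compound was added at final concentrations of 1 to 30 μM, in triplicate, to cells at 70% confluence (5,000 per well seeded). After co-incubation, CCK-8 was added for 1–4 h depending on the cell line. Inhibition from OD450 relative to untreated cells gave IC50.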

Setting [5] is: Table 8, co-incubated 48 h, read-out: Anti-proliferative activity (IC50 ± standard deviation) Hep G2.
The mark [6] stands for this setting: WI-38, Table 9, co-incubated 48 h.
Setting [7] is: Table 12, co-incubated 48 h, read-out: Anti-proliferative activity (IC50 ± standard deviation) Hep G2.
Setting [8] is: WI-38, Table 13, co-incubated 48 h.

For `Nc1ccn([C@@H]2O[C@H](CO)[C@@H](O)C2(F)F)c(=O)n1` [Gem, gemcitabine, reference compound], the “Mice manifesting anorexia and emaciation after 4 doses” value in data set [1] (24 mg/kg oral gavage) worked out at 50%. The “Nude mice that died within 16 d” value in data set [1] (24 mg/kg oral gavage, n=6) is on record as 3 of 6. For the same molecule, the Toxicity observations entry in data set [1] (oral gavage, gemcitabine 24 mg/kg, 8-2h 12, 24, 36 mg/kg) is reported as “significant gastrointestinal reactions”.

As to `COc1cc(OC)cc(N(CCNC(C)C)c2ccc3ncc(-c4cnn(C)c4)nc3c2)c1` [Erda, erdafitinib], the Water solubility result in data set [2] is “poor water solubility”.

For `COc1cc2ncnc(NCc3cccc(NC(=O)NC4CCCCC4)c3)c2cc1OCCCCCCN1CCN(CCN2CCOCC2)CC1` [Compound 8-1v, N-(3-(((7-Methoxy-6-((6-(4-(2-morpholinoethyl)piperazin-1-yl)hexyl)oxy)quinazolin-4-yl)amino)methyl)phenyl)-N′-cyclohexylurea], the 50% inhibitory concentration (IC50) (usually the concentration that inhibits the measured activity by half) with UM-UC-3 cells (Table 6) was 19 ± 0.34 µM; in the data set on PANC-1 cells (Table 7), more than 30 µM; with Hep G2 cells (setting [5]) it was 10.6 ± 0.94 µM; with MCF-7 cells (Table 8) it was more than 30 µM; with BxPC-3 cells (Table 7), 16.8 ± 1.25 µM; with 5637 cells (Table 6), 11.2 ± 0.97 µM. Also, the IC50 with SK-OV-3 cells (Table 9) was more than 30 µM; in the data set with J82 cells (Table 6), 13.9 ± 0.95 µM; in the data set with HeLa cells (Table 8) it was more than 30 µM; in data set [3] (Table 9), more than 30 µM; in the data set on T24 cells (Table 6) it was 15.8 ± 0.89 µM; with 143B cells (Table 7), 22.4 ± 1.63 µM. For the same molecule, the IC50 stood at 15.6 ± 0.92 µM in the data set with MG-63 cells (Table 7), 16.5 ± 0.77 µM in the data set with A549 cells (Table 8) and 15.4 ± 0.88 µM in data set [4] (setting [6]).

Consider `COc1cc2ncnc(NCc3cccc(NC(=O)Nc4cccc(C)c4)c3)c2cc1OCCCCCCN1CCC(CN2CCN(c3ccccn3)CC2)CC1` [Compound 8-2c, N-(3-(((7-methoxy-6-((6-(4-((4-(pyridin-2-yl)piperazin-1-yl)methyl)piperidin-1-yl)hexyl)oxy)quinazolin-4-yl)amino)methyl)phenyl)-N′-(3-methylphenyl)urea], for which the IC50 with UM-UC-3 cells (Table 10) was found to be 8.98 ± 0.89 µM; in the data set with PANC-1 cells (Table 11) it was 19.2 ± 1.08 µM; with Hep G2 cells (setting [7]), 4.69 ± 0.36 µM; in the data set with MCF-7 cells (Table 12) it was 6.69 ± 0.48 µM; with BxPC-3 cells (Table 11), 13.4 ± 0.88 µM; in the data set with 5637 cells (Table 10) it was 7.06 ± 0.57 µM. Besides, the IC50 in the data set with SK-OV-3 cells (Table 12) was determined as 7.94 ± 0.66 µM; in the data set with J82 cells (Table 10), 7.02 ± 0.58 µM; in the data set with HeLa cells (Table 12) it was 6.19 ± 0.53 µM; in data set [3] (Table 13), 8.28 ± 0.51 µM; in the data set with T24 cells (Table 10), 7.29 ± 0.61 µM; in the data set with 143B cells (Table 11) it was 6.01 ± 0.46 µM. Moreover, the 50% inhibitory concentration (IC50) with MG-63 cells (Table 11) came to 6.83 ± 0.62 µM; in the data set with A549 cells (Table 13), 8.39 ± 0.85 µM; in data set [4] (setting [8]), 11.2 ± 0.49 µM.

Turning to `COc1cc2ncnc(NCc3cccc(NC(=O)Nc4ccc(Cl)c(C(F)(F)F)c4)c3)c2cc1OCCCCCCN1CCN(CCN2CCOCC2)CC1` [Compound 8-1r], the IC50 came to 6.14 ± 0.53 µM with UM-UC-3 cells (Table 6); 11.9 ± 0.94 µM with PANC-1 cells (Table 7); 5.59 ± 0.45 µM with Hep G2 cells (setting [5]); 4.12 ± 0.15 µM in the data set with MCF-7 cells (Table 8); 7.39 ± 0.62 µM in the data set with BxPC-3 cells (Table 7); 3.59 ± 0.16 µM in the data set with 5637 cells (Table 6). Also, the IC50 with SK-OV-3 cells (Table 9) was 8.51 ± 0.87 µM; with J82 cells (Table 6), 6.33 ± 0.61 µM; with HeLa cells (Table 8), 5.76 ± 0.57 µM; in data set [3] (Table 9), 7.02 ± 0.53 µM; with T24 cells (Table 6) it was 3.91 ± 0.34 µM; in the data set with 143B cells (Table 7) it was 5.41 ± 0.39 µM. In addition, the IC50 with MG-63 cells (Table 7) was 5.31 ± 0.46 µM; with A549 cells (Table 8), 8.62 ± 0.55 µM; in data set [4] (setting [6]) it was 7.89 ± 0.66 µM.

In the case of `COc1cc2ncnc(NCc3cccc(NC(=O)Nc4ccc(C)cc4)c3)c2cc1OCCCCCCN1CCC(CN2CCN(c3ccccn3)CC2)CC1` [Compound 8-2d, N-(3-(((7-methoxy-6-((6-(4-((4-(pyridin-2-yl)piperazin-1-yl)methyl)piperidin-1-yl)hexyl)oxy)quinazolin-4-yl)amino)methyl)phenyl)-N′-(4-methylphenyl)urea], the IC50 in the data set on UM-UC-3 cells (Table 10) amounted to 7.58 ± 0.79 µM; in the data set with PANC-1 cells (Table 11), 25.4 ± 2.04 µM; in the data set on Hep G2 cells (setting [7]), 3.82 ± 0.25 µM; with MCF-7 cells (Table 12), 7.92 ± 0.51 µM; with BxPC-3 cells (Table 11), 9.29 ± 0.73 µM; in the data set with 5637 cells (Table 10) it was 14.3 ± 0.89 µM. Also, the IC50 in the data set on SK-OV-3 cells (Table 12) amounted to 6.79 ± 0.62 µM; in the data set on J82 cells (Table 10), 13.8 ± 1.33 µM; with HeLa cells (Table 12), 4.79 ± 0.38 µM; in [3] (Table 13), 7.94 ± 0.44 µM; in the data set on T24 cells (Table 10), 6.62 ± 0.49 µM; in the data set on 143B cells (Table 11) it was 6.92 ± 0.39 µM. Besides, the IC50 stood at 7.29 ± 0.62 µM in the data set with MG-63 cells (Table 11), 9.23 ± 0.61 µM in the data set on A549 cells (Table 13) and 9.79 ± 0.38 µM in [4] (setting [8]).

As for `COc1cc2ncnc(NCc3cccc(NC(=O)Nc4ccc(C)cc4C)c3)c2cc1OCCCCCCN1CCC(CN2CCN(c3ccccn3)CC2)CC1` [Compound 8-2e, N-(3-(((7-methoxy-6-((6-(4-((4-(pyridin-2-yl)piperazin-1-yl)methyl)piperidin-1-yl)hexyl)oxy)quinazolin-4-yl)amino)methyl)phenyl)-N′-(2,4-dimethylphenyl)urea], the IC50 in the data set with UM-UC-3 cells (Table 10) stood at 6.68 ± 0.47 µM; in the data set on PANC-1 cells (Table 11), 8.37 ± 0.66 µM; in the data set with Hep G2 cells (setting [7]) it was 3.68 ± 0.19 µM; with Hep G2 cells (read-out: IC50 on Hep G2) it was 3.68 ± 0.19 µM; in the data set with MCF-7 cells (Table 12), 7.65 ± 0.69 µM; with BxPC-3 cells (Table 11) it was 5.46 ± 0.44 µM. For the same molecule, the IC50 in the data set on 5637 cells (Table 10) is 4.31 ± 0.42 µM; with SK-OV-3 cells (Table 12), 7.26 ± 0.72 µM; in the data set on J82 cells (Table 10), 5.31 ± 0.26 µM; with HeLa cells (Table 12) it was 5.26 ± 0.29 µM; in data set [3] (Table 13), 7.56 ± 0.38 µM; with T24 cells (Table 10), 5.57 ± 0.36 µM. For the same molecule, the 50% inhibitory concentration (IC50) in the data set on 143B cells (Table 11) was 5.19 ± 0.33 µM; with MG-63 cells (Table 11), 7.03 ± 0.71 µM; with A549 cells (Table 13) it was 4.92 ± 0.29 µM; in data set [4] (setting [8]), 10.9 ± 0.66 µM. Moreover, the “Sensitivity of PANC-1, in words” value in the data set with PANC-1 cells was “heightened sensitivity”. Further, in the data set with Hep G2 cells, the “Anti-proliferative activity against Hep G2 versus comparative series, in words” value is “significantly better than that of 9a to 9y”. Further, the “Sensitivity of BxPC-3 / anti-proliferative activity against BxPC-3, in words” value in the data set on BxPC-3 cells is on record as “heightened sensitivity”.

These data come from patent publication US20260285816A1, “Piperazinyl-Modified Quinazolinyl-Aryl Urea Derivative, And Preparation Method And Use Thereof” (Guangxi Normal University, priority 2025, published 2026).
